Results on 3 compounds are retold here after publication doi:10.1101/2023.12.04.569845, “Identification of 4-(6-((2-methoxyphenyl)amino)pyrazin-2-yl)benzoic acids as CSNK2A inhibitors with antiviral activity and improved selectivity over PIM3” (bioRxiv, 2023).

Targets include AAK1 (Homo sapiens, UniProt Q2M2I8); BRAF (Homo sapiens, UniProt P15056); CAMK2D (Homo sapiens, UniProt Q13557); DAPK3 (Homo sapiens, UniProt O43293); EPHA4 (Homo sapiens, UniProt P54764); MELK (Homo sapiens, UniProt Q14680); PAK4 (Homo sapiens, UniProt O96013).
What all share (assay): biochemical
Set-up in all cases: Thermal shift (DSF, SYPRO Orange) Tm shift of recombinant kinase domains at 10 uM compound

In the next assay the target is T1, CHK2 (Homo sapiens, UniProt O96017).
T1 construct: gene CHEK2

The target of the next assay is T2, CSNK2a2 (Homo sapiens, UniProt P19784).
T2 construct: kinase domain

For a further assay, the target named is T3, JNK3 (Homo sapiens, UniProt P53779).
T3 construct: gene MAPK10

In a further assay the target is T4, MAPK15 (Homo sapiens, UniProt Q8TD08).
T4 sequence (Q8TD08 1-544): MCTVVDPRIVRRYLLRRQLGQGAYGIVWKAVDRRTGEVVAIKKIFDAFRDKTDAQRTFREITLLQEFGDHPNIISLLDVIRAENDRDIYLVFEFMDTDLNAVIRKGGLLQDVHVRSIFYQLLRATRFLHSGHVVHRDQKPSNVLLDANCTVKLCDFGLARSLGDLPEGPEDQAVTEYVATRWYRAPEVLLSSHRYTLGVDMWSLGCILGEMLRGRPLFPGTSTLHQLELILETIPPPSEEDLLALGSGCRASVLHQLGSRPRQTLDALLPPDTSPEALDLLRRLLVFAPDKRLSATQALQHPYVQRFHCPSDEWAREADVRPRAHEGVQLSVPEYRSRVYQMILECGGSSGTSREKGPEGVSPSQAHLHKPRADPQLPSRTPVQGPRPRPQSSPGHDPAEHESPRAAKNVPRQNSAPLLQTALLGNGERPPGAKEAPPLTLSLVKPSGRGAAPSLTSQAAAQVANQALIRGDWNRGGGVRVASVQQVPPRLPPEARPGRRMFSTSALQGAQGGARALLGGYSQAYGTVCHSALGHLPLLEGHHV

A further assay addresses T5, MSSK1 (Homo sapiens, UniProt Q9UPE1).
T5 construct: gene SRPK3

The target in a further assay is T6, MST1 (Homo sapiens, UniProt Q13043).
T6 construct: gene STK4
T6 sequence (Q13043 1-487): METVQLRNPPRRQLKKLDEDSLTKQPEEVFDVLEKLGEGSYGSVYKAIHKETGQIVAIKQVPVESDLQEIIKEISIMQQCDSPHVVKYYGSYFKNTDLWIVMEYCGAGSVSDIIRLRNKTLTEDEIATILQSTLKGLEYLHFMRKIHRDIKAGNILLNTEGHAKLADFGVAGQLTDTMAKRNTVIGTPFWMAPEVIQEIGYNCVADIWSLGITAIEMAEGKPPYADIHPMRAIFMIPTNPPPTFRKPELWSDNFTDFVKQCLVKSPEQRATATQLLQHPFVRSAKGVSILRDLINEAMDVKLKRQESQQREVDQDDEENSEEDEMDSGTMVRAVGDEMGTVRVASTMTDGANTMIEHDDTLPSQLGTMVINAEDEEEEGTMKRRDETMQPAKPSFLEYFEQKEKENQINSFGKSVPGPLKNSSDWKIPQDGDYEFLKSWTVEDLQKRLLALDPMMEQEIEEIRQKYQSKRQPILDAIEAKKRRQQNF

Where two headings read alike, the source gives them in different places.

T1 sequence (O96017 whole entry): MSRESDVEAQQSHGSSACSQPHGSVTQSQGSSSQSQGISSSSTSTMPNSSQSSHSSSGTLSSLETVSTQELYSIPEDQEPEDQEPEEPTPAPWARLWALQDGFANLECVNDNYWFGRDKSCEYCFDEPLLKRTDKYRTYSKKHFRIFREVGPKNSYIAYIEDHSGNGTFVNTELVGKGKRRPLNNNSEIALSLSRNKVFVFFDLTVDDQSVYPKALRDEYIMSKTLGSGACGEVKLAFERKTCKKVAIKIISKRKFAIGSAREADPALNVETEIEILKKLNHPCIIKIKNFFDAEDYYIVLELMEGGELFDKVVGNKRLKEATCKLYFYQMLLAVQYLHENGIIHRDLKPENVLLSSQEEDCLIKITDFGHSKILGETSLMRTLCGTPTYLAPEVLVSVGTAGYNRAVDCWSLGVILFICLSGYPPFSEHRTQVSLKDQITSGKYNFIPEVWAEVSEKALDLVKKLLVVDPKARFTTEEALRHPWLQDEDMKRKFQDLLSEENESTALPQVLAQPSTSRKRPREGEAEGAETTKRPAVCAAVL
Chain of DAPK3 (O43293 whole entry): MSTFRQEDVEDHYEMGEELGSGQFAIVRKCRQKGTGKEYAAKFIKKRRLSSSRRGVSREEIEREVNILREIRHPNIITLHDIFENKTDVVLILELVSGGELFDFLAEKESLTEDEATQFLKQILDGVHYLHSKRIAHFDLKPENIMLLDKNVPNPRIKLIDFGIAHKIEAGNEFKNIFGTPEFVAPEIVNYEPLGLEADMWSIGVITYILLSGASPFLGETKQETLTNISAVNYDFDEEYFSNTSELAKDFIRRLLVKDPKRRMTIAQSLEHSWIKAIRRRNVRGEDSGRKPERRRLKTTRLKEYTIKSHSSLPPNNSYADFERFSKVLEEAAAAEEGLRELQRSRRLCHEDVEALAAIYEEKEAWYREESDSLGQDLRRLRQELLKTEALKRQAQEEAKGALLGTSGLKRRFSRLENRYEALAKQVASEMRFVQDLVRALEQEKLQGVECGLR
Chain of BRAF (P15056 whole entry): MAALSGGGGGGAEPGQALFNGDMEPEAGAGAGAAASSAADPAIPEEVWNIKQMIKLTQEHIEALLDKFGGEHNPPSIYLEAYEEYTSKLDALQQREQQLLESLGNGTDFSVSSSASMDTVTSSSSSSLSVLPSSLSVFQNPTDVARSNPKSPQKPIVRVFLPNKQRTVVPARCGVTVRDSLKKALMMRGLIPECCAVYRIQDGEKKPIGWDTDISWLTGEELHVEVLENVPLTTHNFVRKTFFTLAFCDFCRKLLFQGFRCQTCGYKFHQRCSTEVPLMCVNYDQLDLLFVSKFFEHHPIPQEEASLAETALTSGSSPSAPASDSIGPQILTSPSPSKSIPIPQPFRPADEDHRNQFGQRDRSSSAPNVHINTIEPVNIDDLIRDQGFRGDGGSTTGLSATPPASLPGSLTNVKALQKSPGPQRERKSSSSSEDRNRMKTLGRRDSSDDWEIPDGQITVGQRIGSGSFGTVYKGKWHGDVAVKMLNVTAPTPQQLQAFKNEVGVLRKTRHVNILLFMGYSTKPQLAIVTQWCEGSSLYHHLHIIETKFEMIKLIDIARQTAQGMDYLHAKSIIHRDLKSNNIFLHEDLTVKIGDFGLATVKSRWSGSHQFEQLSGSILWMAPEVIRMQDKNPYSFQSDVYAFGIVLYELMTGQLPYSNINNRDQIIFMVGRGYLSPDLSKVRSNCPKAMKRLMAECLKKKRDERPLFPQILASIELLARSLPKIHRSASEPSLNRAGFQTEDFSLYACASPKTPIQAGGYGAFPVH
T3 sequence (P53779 whole entry): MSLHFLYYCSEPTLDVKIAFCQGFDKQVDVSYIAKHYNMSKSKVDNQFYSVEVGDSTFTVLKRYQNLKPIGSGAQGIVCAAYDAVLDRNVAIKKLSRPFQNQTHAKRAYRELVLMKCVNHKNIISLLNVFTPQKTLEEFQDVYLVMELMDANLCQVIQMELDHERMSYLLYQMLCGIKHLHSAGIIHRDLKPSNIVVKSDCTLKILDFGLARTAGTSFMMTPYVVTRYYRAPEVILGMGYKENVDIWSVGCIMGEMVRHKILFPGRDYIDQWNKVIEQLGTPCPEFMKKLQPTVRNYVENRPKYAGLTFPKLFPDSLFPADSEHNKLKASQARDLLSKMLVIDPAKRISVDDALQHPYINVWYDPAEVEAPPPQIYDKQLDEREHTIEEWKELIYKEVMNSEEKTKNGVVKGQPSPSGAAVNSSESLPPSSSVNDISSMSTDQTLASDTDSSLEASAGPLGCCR
Chain of MELK (Q14680 whole entry): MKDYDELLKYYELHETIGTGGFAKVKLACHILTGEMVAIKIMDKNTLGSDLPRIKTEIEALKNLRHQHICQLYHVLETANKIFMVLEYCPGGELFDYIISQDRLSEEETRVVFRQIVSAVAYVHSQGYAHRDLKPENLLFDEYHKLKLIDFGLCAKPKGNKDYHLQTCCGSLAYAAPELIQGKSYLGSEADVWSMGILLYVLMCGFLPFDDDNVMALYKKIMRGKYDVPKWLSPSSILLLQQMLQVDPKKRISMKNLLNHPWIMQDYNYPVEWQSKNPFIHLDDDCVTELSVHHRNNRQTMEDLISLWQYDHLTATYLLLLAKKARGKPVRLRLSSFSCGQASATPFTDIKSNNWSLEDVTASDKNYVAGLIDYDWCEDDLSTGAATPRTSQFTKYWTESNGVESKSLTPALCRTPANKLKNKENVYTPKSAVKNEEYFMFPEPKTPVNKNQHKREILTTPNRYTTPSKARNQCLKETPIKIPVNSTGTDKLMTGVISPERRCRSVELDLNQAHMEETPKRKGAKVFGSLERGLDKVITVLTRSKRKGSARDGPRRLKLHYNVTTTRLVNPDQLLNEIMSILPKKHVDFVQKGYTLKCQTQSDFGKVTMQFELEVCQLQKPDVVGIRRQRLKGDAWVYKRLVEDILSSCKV
T5 sequence (Q9UPE1 whole entry): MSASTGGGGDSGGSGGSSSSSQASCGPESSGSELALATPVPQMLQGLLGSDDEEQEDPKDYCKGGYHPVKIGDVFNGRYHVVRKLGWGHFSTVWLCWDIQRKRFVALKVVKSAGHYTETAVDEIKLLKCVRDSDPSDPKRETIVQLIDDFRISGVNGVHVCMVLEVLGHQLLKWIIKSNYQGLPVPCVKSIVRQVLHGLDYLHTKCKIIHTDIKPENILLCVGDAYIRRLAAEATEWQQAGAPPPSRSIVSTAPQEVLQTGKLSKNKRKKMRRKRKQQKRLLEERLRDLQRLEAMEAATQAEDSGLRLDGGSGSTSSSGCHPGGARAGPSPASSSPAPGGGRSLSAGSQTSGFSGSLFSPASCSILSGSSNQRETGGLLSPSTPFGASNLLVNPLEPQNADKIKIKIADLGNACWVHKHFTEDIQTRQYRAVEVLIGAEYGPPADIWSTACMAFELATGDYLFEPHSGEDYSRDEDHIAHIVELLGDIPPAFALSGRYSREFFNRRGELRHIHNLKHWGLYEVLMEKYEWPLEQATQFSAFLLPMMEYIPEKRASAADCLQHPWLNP
Chain of EPHA4 (P54764 whole entry): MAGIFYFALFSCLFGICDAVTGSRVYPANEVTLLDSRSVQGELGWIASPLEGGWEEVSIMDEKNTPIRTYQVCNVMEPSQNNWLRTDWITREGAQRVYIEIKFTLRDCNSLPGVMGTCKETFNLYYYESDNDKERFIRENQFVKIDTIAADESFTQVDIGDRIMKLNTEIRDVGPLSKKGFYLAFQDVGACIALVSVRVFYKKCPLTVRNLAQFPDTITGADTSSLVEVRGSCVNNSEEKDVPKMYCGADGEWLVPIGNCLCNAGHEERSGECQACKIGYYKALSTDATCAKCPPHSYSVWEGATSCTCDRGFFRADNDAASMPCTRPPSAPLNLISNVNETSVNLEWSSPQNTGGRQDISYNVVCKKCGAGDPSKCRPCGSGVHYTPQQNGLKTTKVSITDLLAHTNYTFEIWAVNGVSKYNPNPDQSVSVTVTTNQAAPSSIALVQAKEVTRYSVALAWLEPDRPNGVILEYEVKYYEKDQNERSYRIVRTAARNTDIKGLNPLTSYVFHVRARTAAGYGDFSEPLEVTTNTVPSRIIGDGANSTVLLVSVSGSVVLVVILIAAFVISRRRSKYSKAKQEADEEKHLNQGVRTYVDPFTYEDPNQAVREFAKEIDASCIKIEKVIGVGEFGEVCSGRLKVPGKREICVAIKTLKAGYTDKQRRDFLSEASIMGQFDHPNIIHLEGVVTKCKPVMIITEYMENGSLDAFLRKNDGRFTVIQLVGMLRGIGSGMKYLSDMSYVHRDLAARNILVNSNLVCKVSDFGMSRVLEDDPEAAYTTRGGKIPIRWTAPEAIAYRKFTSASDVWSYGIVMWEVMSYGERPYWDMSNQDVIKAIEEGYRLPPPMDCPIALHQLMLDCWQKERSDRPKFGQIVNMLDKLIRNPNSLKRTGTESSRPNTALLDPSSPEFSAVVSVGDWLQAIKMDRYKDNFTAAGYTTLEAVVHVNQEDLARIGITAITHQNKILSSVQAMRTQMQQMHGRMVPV
Chain of CAMK2D (Q13557 whole entry): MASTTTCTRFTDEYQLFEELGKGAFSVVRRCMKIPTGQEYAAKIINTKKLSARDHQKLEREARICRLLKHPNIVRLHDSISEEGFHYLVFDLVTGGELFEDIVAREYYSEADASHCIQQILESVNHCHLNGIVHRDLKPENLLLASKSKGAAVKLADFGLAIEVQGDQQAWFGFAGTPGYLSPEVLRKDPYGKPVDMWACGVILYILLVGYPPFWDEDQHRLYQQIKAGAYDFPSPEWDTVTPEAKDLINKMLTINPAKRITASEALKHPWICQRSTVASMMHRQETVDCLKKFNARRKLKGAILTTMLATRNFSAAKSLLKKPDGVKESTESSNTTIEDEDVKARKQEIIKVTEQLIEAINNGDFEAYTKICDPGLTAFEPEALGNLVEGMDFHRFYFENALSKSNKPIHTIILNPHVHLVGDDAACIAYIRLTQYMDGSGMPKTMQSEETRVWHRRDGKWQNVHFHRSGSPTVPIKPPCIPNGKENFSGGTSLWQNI

As for `CC(C)Oc1ccc2ccn(-c3cncc(-c4ccc(C(=O)O)cc4)n3)c2c1` [6c], the ΔTm at 10 µM at AAK1 (read-out: 6c) is 6 °C; on BRAF (read-out: 6c) it was 8 °C; at CAMK2D (read-out: 6c), 3 °C; at CHK2 (read-out: 6c) it was 4 °C; at CSNK2a2 (read-out: 6c), 16 °C; at DAPK3 (read-out: 6c), 11 °C. The ΔTm at 10 µM at EPHA4 (read-out: 6c) worked out at 2 °C; at JNK3 (read-out: 6c), 3 °C; at MAPK15 (read-out: 6c), 15 °C; at MELK (read-out: 6c), 4 °C; on MSSK1 (read-out: 6c) it was 1 °C; at MST1 (read-out: 6c), 1 °C. For the same compound, the ΔTm at 10 µM on PAK4 (read-out: 6c) was 3 °C.

Regarding `COc1ccc(OC(C)C)cc1Nc1cncc(-c2ccc(C(=O)O)cc2)n1` [7c], the ΔTm at 10 µM on AAK1 (read-out: 7c) came out at 5 °C; on BRAF (read-out: 7c) it was 7 °C; at CAMK2D (read-out: 7c), 0 °C; on CHK2 (read-out: 7c) it was 3 °C; on CSNK2a2 (read-out: 7c), 15 °C; at DAPK3 (read-out: 7c), 14 °C. Moreover, the ΔTm at 10 µM on EPHA4 (read-out: 7c) is 1 °C; on JNK3 (read-out: 7c) it was 1 °C; at MAPK15 (read-out: 7c) it was 10 °C; on MELK (read-out: 7c) it was 4 °C; at MSSK1 (read-out: 7c), 1 °C; on MST1 (read-out: 7c), 1 °C. For the same compound, on PAK4 (read-out: 7c), the ΔTm at 10 µM came to 1 °C.

Turning to `CC(C)Nc1ccc2cnn(-c3cncc(-c4ccc(C(=O)O)cc4)n3)c2c1` [compound 2, 2], the ΔTm at 10 µM amounted to 7 °C at AAK1 (read-out: 2); 6 °C at BRAF (read-out: 2); 3 °C at CAMK2D (read-out: 2); 6 °C at CHK2 (read-out: 2); 15 °C on CSNK2a2 (read-out: 2); 16 °C at DAPK3 (read-out: 2). Besides, the ΔTm at 10 µM on EPHA4 (read-out: 2) came out at 2 °C; on JNK3 (read-out: 2) it was 6 °C; at MAPK15 (read-out: 2) it was 12 °C; at MELK (read-out: 2), 6 °C; on MSSK1 (read-out: 2) it was 3 °C; at MST1 (read-out: 2), 3 °C. Moreover, the ΔTm at 10 µM on PAK4 (read-out: 2) is 3 °C.
